Experimental data: patent US5705662A, “17-(3-imino-2-alkylpropenyl)-5β, 14β-androstane derivatives active on the cardiovascular system, processes for their preparation and pharmaceutical compositions containing same” (Sigma-Tau Industrie Farmaceutiche Riunite S.p.A., priority 1994, dated 1998)

Legend:
[1] = J. Med. Chem. 1978, 21, 284; Quant. Struct.-Act. Relat. 1988, 7, 160; cited from earlier work
Na^+,K^+ -ATPase [2] = conditions: J. Med. Chem. 1978, 21, 284; Quant. Struct.-Act. Relat. 1988, 7, 160; DE 4,227,605; DE 4,227,626; cited from earlier work
Na^+,K^+ -ATPase [3] = molecular target: T1, Na^+,K^+ -ATPase (Canis lupus familiaris, UniProt P50997); test: displacement of the specific 3H-ouabain binding from the purified Na+,K+-ATPase receptor
T1 construct: Na^+,K^+ -ATPase receptor purified according to Jorghensen; from tissue
From the text: (§1) To test the affinity for the receptor site of the Na^+,K^+ -ATPase and the agonist or antagonist activity on the enzyme, the following tests were used:
a) displacement of the specific ^3 H-ouabain binding from the Na^+,K^+ -ATPase receptor purified according to Jorghensen (Jorghensen P., BBA. 1974, 356, 36) and Erdmann (Erdmann E. et al., Arzneim. Forsh., 1984, 34, 1314);

[4] = system: spontaneous hypertensive rats (MHS); test: effect of 5 week-treatment on the development of hypertension in MHS rats (SBP and HR, tail cuff method); format: in vivo, rat (MHS); conditions: 10 mg/Kg/os daily in Methocel 0.5% w/v, 5 weeks, controls 171 +/- 4.5
Protocol: (§2) Systolic blood pressure (SBP) and heart rate (HR) were measured. by the tail cuff method, in young prehypertensive male rats (MHS or SHR) strains before the development of hypertension (4 weeks of age) for recording the basal values of SBP. Groups of 7 rats were formed and subdivided in control and treated groups. The compound, suspended in Methocel 0.5 % (w/v). was orally given daily for at least 5 weeks to the treated groups. The control group received only Methocel.
(§3) SBP and HR were measured weekly 6 and 24 hrs after treatment. After 5 weeks of treatment, when hypertension was fully developed in the control group (9 weeks of age), washout was started for at least one week, to verify whether the treatment maintained blood pressure low or reestablished the basal values. […] (Takeda K. et al., Japan J. Pharmacol., 1979, 29,171: Takeda K. et al. Japan J. Pharmacol., 1982, 32, 283; Richer C. et al. Eur. J. Pharmacol, 1978, 47,393).

[5] = as above; format: in vivo, rat (MHS); conditions: 10 mg/Kg/os daily in Methocel 0.5% w/v, 5 weeks, controls 375 +/- 7.3
Protocol: as §2, §3

Na^+,K^+ -ATPase [6] = molecular target: T1, Na^+,K^+ -ATPase; test: inhibition of the activity of the purified Na+,K+-ATPase (% hydrolysis of 32P-ATP); format: biochemical
From the text: as §1
b) inhibition of the activity of the purified Na^+,K^+ -ATPase measured as % of hydrolysis of ^32 P-ATP in presence and in absence of the tested compound (Doucet A. et al. Am. J. Physiol., 1986, 251, F851)

[7] = 3H-ouabain displacement, purified Na+,K+-ATPase, read-out: Binding ^3 H-Ouab. Displacement log IC50 (converted)
[8] = purified Na+,K+-ATPase, 32P-ATP hydrolysis, read-out: Inhibitory Activity log IC50 (converted)

SMILES	IC50 (Na^+,K^+ -ATPase [3]; [7])	IC50 (Na^+,K^+ -ATPase [6]; [8])	IC50 (Na^+,K^+ -ATPase [3])	IC50 (Na^+,K^+ -ATPase [6])	also measured
C[C@]12CC[C@H](O)C[C@H]1CC[C@@H]1[C@@H]2CC[C@]2(C)C(=NNC(=N)N)CC[C@]12O [17-guanidinoimino-5β-androstane-3β,14β-diol]					positive inotropic activity (in words) [1]: weak positive inotropic agents; inhibition of Na+,K+-ATPase (in words) (Na^+,K^+ -ATPase [2]): weak inhibitors of Na^+,K^+ -ATPase
C[C@]12CC[C@H](O)C[C@H]1CC[C@@H]1[C@@H]2CC[C@]2(C)[C@@H](C=NNC(=N)N)CC[C@]12O [17β-guanidinoiminomethyl-5β-androstane-3β,14β-diol]					positive inotropic activity (in words) [1]: weak positive inotropic agents; inhibition of Na+,K+-ATPase (in words) (Na^+,K^+ -ATPase [2]): weak inhibitors of Na^+,K^+ -ATPase
CC(/C=N/NC(=N)N)=C\[C@H]1CC[C@]2(O)[C@@H]3CC[C@@H]4C[C@@H](O)CC[C@]4(C)[C@H]3CC[C@]12C [Comp. I-aa, (E,E)-17β-(3-Guanidinoimino-2-methyl-1-propenyl)-5β-androstane-3β,14β-diol]	31.6 nM	251 nM			SBP [4]: 148 +/- 5.7 mm Hg; HR [5]: 374 +/- 9.5 beats/min.
CC(/C=N/OCCN)=C\[C@H]1CC[C@]2(O)[C@@H]3CC[C@@H]4C[C@@H](O)CC[C@]4(C)[C@H]3CC[C@]12C [Comp. I-af, (E,E)-17β-[3-(2-Aminoethoxyimino)-2-methyl-1-propenyl]-5β-androstone-3β,14β-diol]	20 nM	31.6 nM			SBP [4]: 146 +/- 6.1 mm Hg; HR [5]: 380 +/- 3.9 beats/min.
CC(/C=N/OCCN)=C\[C@H]1CC[C@]2(O)[C@@H]3CC[C@@H]4C[C@@H](OCCCN)CC[C@]4(C)[C@H]3CC[C@]12C [Comp. I-ba]	20 nM	39.8 nM			
CC(/C=N/NC(=N)N)=C\[C@H]1CC[C@]2(O)[C@@H]3CC[C@@H]4C[C@H](O)CC[C@]4(C)[C@H]3CC[C@]12C [Comp. I-bb, (E,E)-17β-(3-Guanidinoimino-2-methyl-1-propenyl)-5β-androstane-3α,14β-diol]			631 nM	3160 nM	
CC(/C=N/OCCN)=C\[C@H]1CC[C@]2(O)[C@@H]3CC[C@@H]4C[C@H](O)CC[C@]4(C)[C@H]3CC[C@]12C [Comp. I-bc, (E,E)-17β-[3-(2-Aminoethoxyimino)-2-methyl-1-propenyl]-5β-androstane-3α,14β-diol]			501 nM	2510 nM	
CC(/C=N/OCCN)=C\[C@H]1CC[C@]2(O)[C@@H]3CC[C@@H]4C[C@H](OCCN5CCCC5)CC[C@]4(C)[C@H]3CC[C@]12C [Comp. I-bd]			501 nM	3160 nM	
CC(/C=N/OCCN)=C\[C@H]1CC[C@]2(O)[C@@H]3CC[C@@H]4C[C@H](OCCCN)CC[C@]4(C)[C@H]3CC[C@]12C [Comp. I-be, (E,E)-3α-(3-Aminopropoxy)-17β-[3-(2-aminoethoxyimino)-2-methyl-1-propenyl]-5β-androstane-14β-ol]			631 nM	3980 nM	
CC(/C=N/NC(=N)N)=C\[C@H]1CC[C@]2(O)[C@@H]3CC[C@@H]4C[C@@H](OCCN)CC[C@]4(C)[C@H]3CC[C@]12C [I-ax]	25.1 nM	39.8 nM			
